5 compounds from publication PMC6050590 (Nature, 2017) can be followed below.

As usually defined, the EC50 is the concentration that produces a half-maximal response.

For one data set, the system named is H3K27Ac in PC-3 cells. In words: High content microscopy of H3K27Ac in PC-3 cells. Type of data set: cell-based.
Another data set concerns the target p300-HAT (Homo sapiens, UniProt Q09472). Nature of the data set: Surface plasmon resonance binding to p300-HAT. Particulars: SPR.
In data set [1] the test system is PSA expression in 22Rv1 cells. Nature of the data set: qRT-PCR of PSA expression in androgen depleted 22Rv1 cells. It counts as cell-based. Particulars: absence of androgens, 7 h and 24 h. For orientation: In qPCR the cycle at which signal appears reflects the starting amount.
For another data set, the system named is 22Rv1 cells. In words: Proliferation of androgen depleted 22Rv1 cells. Type of data set: cell-based. Particulars: absence of androgens.
Data set [2] concerns the target p300-BHC (bromodomain-HAT-C/H3) domain (Homo sapiens, UniProt Q09472). The conditions noted are these: toward p300 and CBP.
In data set [3] the test system is DHT responsive genes in 22Rv1 cells. It counts as cell-based. Particulars: androgen depleted 22Rv1 cells.
Data set [4] has as its system H3K27Ac and AR occupancy at the PSA enhancer, LnCaP-FGC cells. In words: ChIP at the PSA enhancer in DHT-stimulated LnCaP-FGC cells. Type of data set: cell-based. The conditions noted are these: DHT 6 h.
In data set [5] the test system is c-Myc expression in 22Rv1 cells. Nature of the data set: c-Myc expression in androgen depleted 22Rv1 cells. It counts as cell-based.
Data set [6] addresses T1, p300-BHC (Homo sapiens, UniProt Q09472). Nature of the data set: Thermal shift assay with p300-BHC.
A further data set deals with MYST3 (Homo sapiens, UniProt Q92794). Nature of the data set: HAT family selectivity, MYST3. Particulars: at 10 µM.
For another data set, the target named is serotonin transporter (Homo sapiens, UniProt P31645). Nature of the data set: Non-epigenetic target panel, serotonin transporter binding. Particulars: at 10 µM.
For a further data set, the target named is MYST4 (Homo sapiens, UniProt Q8WYB5). Nature of the data set: HAT family selectivity, MYST4. The conditions noted are these: at 10 µM.
MYST4, sequence (Q8WYB5 whole entry, species assumed): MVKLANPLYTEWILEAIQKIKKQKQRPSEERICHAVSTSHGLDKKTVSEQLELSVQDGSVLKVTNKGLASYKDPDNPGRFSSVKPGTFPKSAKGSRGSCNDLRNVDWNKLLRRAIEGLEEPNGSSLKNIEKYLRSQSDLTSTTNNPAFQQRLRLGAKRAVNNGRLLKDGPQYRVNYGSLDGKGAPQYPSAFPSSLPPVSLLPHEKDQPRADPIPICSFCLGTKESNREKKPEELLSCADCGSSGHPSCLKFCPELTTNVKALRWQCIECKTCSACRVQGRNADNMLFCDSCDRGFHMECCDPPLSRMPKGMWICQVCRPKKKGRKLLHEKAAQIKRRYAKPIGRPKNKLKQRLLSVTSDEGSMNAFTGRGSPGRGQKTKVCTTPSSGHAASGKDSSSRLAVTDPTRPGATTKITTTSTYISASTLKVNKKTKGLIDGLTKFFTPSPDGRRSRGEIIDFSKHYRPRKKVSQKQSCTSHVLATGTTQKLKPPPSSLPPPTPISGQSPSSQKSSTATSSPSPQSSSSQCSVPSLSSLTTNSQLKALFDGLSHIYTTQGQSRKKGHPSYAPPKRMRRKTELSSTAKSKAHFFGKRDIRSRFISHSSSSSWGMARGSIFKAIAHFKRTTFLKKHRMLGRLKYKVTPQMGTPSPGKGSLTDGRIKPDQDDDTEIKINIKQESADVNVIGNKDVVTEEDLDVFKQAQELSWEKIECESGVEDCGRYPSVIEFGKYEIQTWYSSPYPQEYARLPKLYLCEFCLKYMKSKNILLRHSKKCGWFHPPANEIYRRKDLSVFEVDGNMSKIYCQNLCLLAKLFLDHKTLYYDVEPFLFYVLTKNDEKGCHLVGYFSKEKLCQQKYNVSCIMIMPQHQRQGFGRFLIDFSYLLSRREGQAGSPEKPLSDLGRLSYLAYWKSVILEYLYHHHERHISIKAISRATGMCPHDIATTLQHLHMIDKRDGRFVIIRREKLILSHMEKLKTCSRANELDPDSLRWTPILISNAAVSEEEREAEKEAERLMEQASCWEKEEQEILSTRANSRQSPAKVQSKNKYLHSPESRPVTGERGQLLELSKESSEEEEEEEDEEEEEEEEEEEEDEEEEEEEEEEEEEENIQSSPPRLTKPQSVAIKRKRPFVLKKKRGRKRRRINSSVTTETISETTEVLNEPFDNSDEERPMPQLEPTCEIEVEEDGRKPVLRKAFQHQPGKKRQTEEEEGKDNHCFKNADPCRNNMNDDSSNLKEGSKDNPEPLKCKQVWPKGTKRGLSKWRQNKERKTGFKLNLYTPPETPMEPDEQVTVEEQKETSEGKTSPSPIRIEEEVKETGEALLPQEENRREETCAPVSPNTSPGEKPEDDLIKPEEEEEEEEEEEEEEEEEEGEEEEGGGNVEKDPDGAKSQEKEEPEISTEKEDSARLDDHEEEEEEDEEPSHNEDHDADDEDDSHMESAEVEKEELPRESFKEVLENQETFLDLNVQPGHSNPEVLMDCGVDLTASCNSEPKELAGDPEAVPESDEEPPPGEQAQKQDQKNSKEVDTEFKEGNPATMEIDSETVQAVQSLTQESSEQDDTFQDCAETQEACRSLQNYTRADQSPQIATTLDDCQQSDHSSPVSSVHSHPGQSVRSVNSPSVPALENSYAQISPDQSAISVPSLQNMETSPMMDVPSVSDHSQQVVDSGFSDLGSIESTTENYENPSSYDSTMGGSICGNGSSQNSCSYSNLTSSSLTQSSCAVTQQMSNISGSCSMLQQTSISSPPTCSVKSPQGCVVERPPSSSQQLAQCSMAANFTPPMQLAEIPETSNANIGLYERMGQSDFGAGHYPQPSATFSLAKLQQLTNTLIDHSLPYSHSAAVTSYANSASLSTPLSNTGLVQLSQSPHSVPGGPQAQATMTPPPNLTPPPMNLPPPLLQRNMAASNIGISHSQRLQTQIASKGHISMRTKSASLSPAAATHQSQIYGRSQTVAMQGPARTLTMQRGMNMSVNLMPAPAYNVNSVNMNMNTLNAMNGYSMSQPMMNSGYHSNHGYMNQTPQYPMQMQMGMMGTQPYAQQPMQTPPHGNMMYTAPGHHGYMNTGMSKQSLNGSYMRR
Data set [7] concerns the target T1, p300-BHC. Nature of the data set: AlphaLISA-based peptide substrate binding assay.
The next data set deals with TIP60 (Homo sapiens, UniProt Q92993). In words: HAT family selectivity, TIP60. The conditions noted are these: at 10 µM.
In data set [8] the test system is PSA expression in LnCaP-FGC cells. In words: qRT-PCR of DHT-stimulated PSA expression in LnCaP-FGC cells. Type of data set: cell-based. Particulars: 7 h and 24 h.
The test system of the next data set is LuCaP-77 CR xenograft. Nature of the data set: LuCaP-77 CR castration resistant prostate cancer xenograft model. It counts as in vivo, SCID male mice. The conditions noted are these: 7 days dosing, 3 h post-dosing.
Another data set relates to H3K9Ac in PC-3 cells. Nature of the data set: High content microscopy of H3K9Ac in PC-3 cells. The conditions noted are these: Homo sapiens, PC-3, 3 h, read-out: EC50, decrease of H3K9Ac.
The test system of data set [9] is AR+ prostate cancer cell lines. Nature of the data set: Cell proliferation of prostate cancer cell lines.
The nature of a further data set: Brain exposure. Particulars: in vivo.
The next data set has as its target GCN5L2 (Homo sapiens, UniProt Q92830). In words: HAT family selectivity, GCN5L2. The conditions noted are these: at 10 µM.
Another data set has as its target dopamine transporter (Homo sapiens, UniProt Q01959). Nature of the data set: Non-epigenetic target panel, dopamine transporter binding. Particulars: at 10 µM.
The next data set addresses PCAF (Homo sapiens, UniProt Q92831). Nature of the data set: HAT family selectivity, PCAF. Particulars: at 10 µM.
The next data set addresses HAT1 (Homo sapiens, UniProt O14929). In words: HAT family selectivity, HAT1. The conditions noted are these: at 10 µM.

Where only a bound is given, the exact number is not on record here.

T1 sequence (Q09472 1049-1809 limits assumed): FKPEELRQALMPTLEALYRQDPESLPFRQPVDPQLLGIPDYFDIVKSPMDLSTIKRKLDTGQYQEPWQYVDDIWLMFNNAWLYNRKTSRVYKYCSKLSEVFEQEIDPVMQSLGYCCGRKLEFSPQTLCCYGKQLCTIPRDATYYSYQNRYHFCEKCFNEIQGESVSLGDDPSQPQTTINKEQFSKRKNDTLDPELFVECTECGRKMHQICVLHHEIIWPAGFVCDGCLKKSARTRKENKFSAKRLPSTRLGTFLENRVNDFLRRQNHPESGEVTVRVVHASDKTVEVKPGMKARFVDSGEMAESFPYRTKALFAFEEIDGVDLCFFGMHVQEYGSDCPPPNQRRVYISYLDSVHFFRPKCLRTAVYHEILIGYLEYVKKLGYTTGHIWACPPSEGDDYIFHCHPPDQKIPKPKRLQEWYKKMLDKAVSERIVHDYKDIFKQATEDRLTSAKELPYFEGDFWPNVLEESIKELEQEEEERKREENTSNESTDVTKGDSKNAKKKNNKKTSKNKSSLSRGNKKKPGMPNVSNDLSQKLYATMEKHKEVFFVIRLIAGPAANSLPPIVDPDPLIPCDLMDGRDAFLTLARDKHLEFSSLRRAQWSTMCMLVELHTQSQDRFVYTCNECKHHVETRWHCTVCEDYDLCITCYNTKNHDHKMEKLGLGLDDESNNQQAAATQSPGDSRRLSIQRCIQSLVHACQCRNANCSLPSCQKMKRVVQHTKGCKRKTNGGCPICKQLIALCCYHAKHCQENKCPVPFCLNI
PCAF, sequence (Q92831 whole entry): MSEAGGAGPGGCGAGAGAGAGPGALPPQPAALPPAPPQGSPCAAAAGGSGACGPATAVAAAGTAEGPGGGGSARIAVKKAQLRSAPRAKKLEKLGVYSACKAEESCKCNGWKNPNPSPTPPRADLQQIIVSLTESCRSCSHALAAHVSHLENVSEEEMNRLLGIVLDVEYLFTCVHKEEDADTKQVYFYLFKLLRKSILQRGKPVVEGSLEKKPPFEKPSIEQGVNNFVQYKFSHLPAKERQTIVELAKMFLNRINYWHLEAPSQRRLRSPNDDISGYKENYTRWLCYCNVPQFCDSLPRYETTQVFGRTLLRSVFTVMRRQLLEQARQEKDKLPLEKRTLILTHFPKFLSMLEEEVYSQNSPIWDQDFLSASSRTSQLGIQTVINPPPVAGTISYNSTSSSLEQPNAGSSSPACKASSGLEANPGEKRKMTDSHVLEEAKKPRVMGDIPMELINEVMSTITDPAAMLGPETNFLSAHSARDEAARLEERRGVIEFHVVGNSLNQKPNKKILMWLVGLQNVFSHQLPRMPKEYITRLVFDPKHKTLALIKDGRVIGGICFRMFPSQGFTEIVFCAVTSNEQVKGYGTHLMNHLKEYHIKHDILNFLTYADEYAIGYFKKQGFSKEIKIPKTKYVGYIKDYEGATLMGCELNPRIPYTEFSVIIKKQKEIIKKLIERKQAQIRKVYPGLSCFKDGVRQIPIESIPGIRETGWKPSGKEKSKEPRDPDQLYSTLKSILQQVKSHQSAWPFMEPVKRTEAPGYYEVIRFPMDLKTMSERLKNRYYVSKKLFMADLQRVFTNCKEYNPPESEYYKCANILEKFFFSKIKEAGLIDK
GCN5L2, sequence (Q92830 whole entry): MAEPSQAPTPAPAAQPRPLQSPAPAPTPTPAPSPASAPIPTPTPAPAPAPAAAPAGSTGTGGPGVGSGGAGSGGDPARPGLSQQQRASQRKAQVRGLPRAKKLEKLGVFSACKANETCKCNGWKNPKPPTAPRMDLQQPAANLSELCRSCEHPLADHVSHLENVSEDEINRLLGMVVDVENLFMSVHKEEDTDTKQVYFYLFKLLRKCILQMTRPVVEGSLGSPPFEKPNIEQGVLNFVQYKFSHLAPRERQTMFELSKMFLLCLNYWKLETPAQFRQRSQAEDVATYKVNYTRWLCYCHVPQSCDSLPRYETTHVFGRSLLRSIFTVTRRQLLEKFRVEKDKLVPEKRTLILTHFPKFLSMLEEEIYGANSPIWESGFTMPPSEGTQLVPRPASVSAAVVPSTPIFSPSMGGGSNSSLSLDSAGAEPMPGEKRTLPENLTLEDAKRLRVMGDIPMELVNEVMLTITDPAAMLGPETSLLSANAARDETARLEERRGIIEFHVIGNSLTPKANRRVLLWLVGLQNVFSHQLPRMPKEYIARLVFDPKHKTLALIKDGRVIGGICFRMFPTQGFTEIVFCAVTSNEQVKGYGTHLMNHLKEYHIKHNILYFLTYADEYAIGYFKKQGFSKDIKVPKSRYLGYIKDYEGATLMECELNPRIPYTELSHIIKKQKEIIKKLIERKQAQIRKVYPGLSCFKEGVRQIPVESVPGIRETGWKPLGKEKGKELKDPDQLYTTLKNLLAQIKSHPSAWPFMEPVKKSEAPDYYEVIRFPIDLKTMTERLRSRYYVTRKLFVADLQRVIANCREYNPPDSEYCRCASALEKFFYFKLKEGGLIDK
p300-HAT, sequence (Q09472 1287-1663 limits assumed): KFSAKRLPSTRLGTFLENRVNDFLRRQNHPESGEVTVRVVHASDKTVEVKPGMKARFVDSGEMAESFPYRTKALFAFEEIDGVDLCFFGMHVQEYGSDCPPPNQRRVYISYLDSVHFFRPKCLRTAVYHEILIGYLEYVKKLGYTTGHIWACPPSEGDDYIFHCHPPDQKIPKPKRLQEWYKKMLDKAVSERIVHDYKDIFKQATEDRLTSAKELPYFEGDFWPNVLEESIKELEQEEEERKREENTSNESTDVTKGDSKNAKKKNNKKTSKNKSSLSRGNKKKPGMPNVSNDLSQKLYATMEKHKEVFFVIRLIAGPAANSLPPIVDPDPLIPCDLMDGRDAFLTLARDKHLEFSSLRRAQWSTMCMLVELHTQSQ
p300-BHC (bromodomain-HAT-C/H3) domain, sequence (Q09472 1049-1809 limits assumed): as the sequence (Q09472 1049-1809 limits assumed) above

Turning to `CNC(=O)Nc1ccc2c(c1)[C@@]1(CC2)OC(=O)N(CC(=O)N(Cc2ccc(F)cc2)[C@@H](C)C(F)(F)F)C1=O` [Compound A-486], the “effect on H3K27Ac, in words” value with H3K27Ac in PC-3 cells is “inactive”. Moreover, the “fold weaker binding than A-485” value at p300-HAT is ~ 1,000 fold. Also, the PSA expression result in data set [1] is “inactive”. The inhibition of proliferation entry in the data set on 22Rv1 cells was “inactive”. Further, the “fold less potent than A-485” value in data set [2] was ~ 1000 fold.

`CC1=NN(c2ccc(C(=O)O)cc2)C(=O)/C1=C\c1ccc(-c2cc(C)c(C)cc2[N+](=O)[O-])o1` [Compound C646, reference compound]: the “effect on H3K27Ac, in words” value with H3K27Ac in PC-3 cells is “only modest inhibition”.

Take `CNC(=O)c1ccc(N2C(=S)N(c3ccc(C#N)c(C(F)(F)F)c3)C(=O)C2(C)C)cc1F` [enzalutamide, reference compound]: the “effect on DHT responsive genes, in words” value in [3] is “inactive”. In data set [4], the “AR occupancy at the PSA enhancer” value was “decreased AR occupancy” and the “H3K27Ac at the PSA enhancer” value is “reduced H3K27Ac binding”. In addition, the PSA expression result in data set [1] is “inactive”. The inhibition of proliferation entry in the data set with 22Rv1 cells was “inactive”. Besides, the c-Myc expression entry in [5] is “no effect”.

As to `CC(=O)N[C@@H](CCCCNC(=O)CSCCNC(=O)CCNC(=O)[C@H](O)C(C)(C)COP(=O)(O)OP(=O)(O)OC[C@H]1O[C@@H](n2cnc3c(N)ncnc32)[C@H](O)[C@@H]1OP(=O)(O)O)C(N)=O` [Lys-CoA], the “increase of thermostability of p300-BHC” value at p300-BHC [6] was determined as 5.8 °C.

Consider `CNC(=O)Nc1ccc2c(c1)CC[C@@]21OC(=O)N(CC(=O)N(Cc2ccc(F)cc2)[C@@H](C)C(F)(F)F)C1=O` [Compound A-485], for which the “inhibition of MYST3 activity” value on MYST3 is reported as “did not inhibit”. The “binding to serotonin transporter” value on serotonin transporter is on record as > 90%. The “inhibition of MYST4 activity” value at MYST4 is recorded as “did not inhibit”. The “competition with peptide substrate binding” value on p300-BHC [7] is “not competitive with the peptide substrate”. Further, on TIP60, the “inhibition of TIP60 activity” value is “did not inhibit”. In data set [4], the “H3K27Ac at the PSA enhancer” value is given as “reduced H3K27Ac binding”. Further, in data set [8], the “DHT-stimulated PSA expression” value is “attenuated DHT-stimulated PSA expression more potently than the AR antagonist enzalutamide”. Besides, the “tumor mRNA levels of SLC45A3 and c-Myc” value in the data set with LuCaP-77 CR xenograft is on record as “decrease”. Moreover, the concentration for a half-maximal effect (EC50) with H3K9Ac in PC-3 cells is > 10 µM. Further, the inhibition of proliferation entry is on record as “potent inhibition of proliferation” in data set [9] and “inhibited proliferation” in the data set with 22Rv1 cells. Further, the brain exposure result in the data set “Brain exposure” is “does not achieve significant brain exposure”. Also, the “inhibition of GCN5L2 activity” value on GCN5L2 was “did not inhibit”. The “binding to dopamine transporter” value on dopamine transporter is on record as > 90%. For the same compound, the PSA expression entry in data set [1] is reported as “decreased PSA expression”. The “inhibition of PCAF activity” value against PCAF is “did not inhibit”. In addition, the c-Myc expression entry in data set [5] is recorded as “robustly decreased”. Moreover, the “inhibition of HAT1 activity” value against HAT1 is “did not inhibit”.
